According to ChEMBL document CHEMBL1150321:
Calls of active or inactive are those of the source. The calls are words filed in the database; no cut-off is given here.

Assays:
[1] = target: Baculoviral IAP repeat-containing protein 2 (Homo sapiens) (UniProt Q13490); assay: Binding affinity to human BIR3 domain of cIAP1 at 150 uM after 30 mins by photoaffinity labeling assay in presence of (S)-2-((2S,3R)-3-Amino-2-hydroxy-4-phenyl-butyrylamino)-4-methyl-pentanoic acid methyl ester
[2] = target: Baculoviral IAP repeat-containing protein 2 (Homo sapiens) (UniProt Q13490); assay: Binding affinity to human BIR3 domain of cIAP1 by photoaffinity labeling assay in presence of (S)-2-((2S,3R)-3-Amino-2-hydroxy-4-phenyl-butyrylamino)-4-methyl-pentanoic acid methyl ester
[3] = target: Baculoviral IAP repeat-containing protein 2 (Homo sapiens) (UniProt Q13490); assay: Binding affinity to human BIR3 domain of cIAP1 by fluorescence polarization assay

Baculoviral IAP repeat-containing protein 2 (Homo sapiens), sequence (Q13490 whole entry, looked up, the tested form may be a part): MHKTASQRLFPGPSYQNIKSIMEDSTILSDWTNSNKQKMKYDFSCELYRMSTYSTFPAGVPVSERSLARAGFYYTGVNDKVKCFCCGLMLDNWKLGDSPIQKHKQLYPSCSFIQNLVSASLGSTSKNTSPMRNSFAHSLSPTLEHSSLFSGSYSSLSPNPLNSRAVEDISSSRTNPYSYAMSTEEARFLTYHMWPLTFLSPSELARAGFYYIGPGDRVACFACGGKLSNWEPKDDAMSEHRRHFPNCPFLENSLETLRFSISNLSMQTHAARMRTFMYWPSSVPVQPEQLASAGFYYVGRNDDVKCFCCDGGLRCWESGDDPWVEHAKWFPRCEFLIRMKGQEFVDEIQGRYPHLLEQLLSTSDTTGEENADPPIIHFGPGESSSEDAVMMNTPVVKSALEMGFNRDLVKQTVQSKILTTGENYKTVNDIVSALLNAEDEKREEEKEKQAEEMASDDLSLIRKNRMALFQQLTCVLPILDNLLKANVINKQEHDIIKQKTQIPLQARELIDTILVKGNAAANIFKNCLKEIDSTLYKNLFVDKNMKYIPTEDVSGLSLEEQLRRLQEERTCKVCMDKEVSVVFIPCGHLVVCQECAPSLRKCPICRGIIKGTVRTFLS

Activity [1] | Activity [2] | Activity [3] | SMILES
Active | – | – | CC(C)C[C@H](NC(=O)[C@@H](O)[C@H](N)Cc1ccccc1)C(=O)OCCNS(=O)(=O)c1cccc2c(N=[N+]=[N-])cccc12
– | Active | Active | CC(C)C[C@H](NC(=O)[C@@H](O)[C@H](N)Cc1ccccc1)C(=O)OCCNS(=O)(=O)c1cccc2c(N(C)C)cccc12
